These are literature values, as cited in patent US20220193002A1, “PROCESS FOR THE PREPARATION OF BAKUCHIOL COMPOSITION SUBSTANTIALLY FREE OF FURANOCOUMARIN IMPURITIES” (K V Natural Ingredients PVT LTD, priority 2020, published 2022).

The test system of this series is S. mutans. Particulars: cell growth inhibited in a concentration dependent manner; complete prevention of growth.

`C=C[C@@](C)(/C=C/c1ccc(O)cc1)CCC=C(C)C` [bakuchiol, 4-[(1E,3S)-3-ethenyl-3,7-dimethylocta-1,6-dienyl]phenol]: the “concentration at which the growth of S. mutans was completely prevented” value is 20 µg/mL.
